In patent US20220323406A1, “METHODS AND COMPOSITIONS FOR DIFFERENTIATING STEM CELLS” (Massachusetts Institute of Technology, priority 2019, published 2022):

Columns and labels:
[1] = system: ENR+CD organoids (ISC to Paneth cell differentiation); assay: Primary screen: basal (non-stimulated) lysozyme secretion LYZ.NS, 2.5-D 384-well ENR+CD organoid differentiation; format: cell-based, mouse; conditions: primary screen; for Z.LYZ.NS: standard z score
From the text: (§1) High-throughput screening.

[2] = system: ENR+CD organoids (ISC to Paneth cell differentiation); assay: Primary screen: CCh-stimulated lysozyme secretion LYZ.S, 2.5-D 384-well ENR+CD organoid differentiation; format: cell-based, mouse; conditions: primary screen
From the text: as §1

ENR+CD organoids = assay: Primary screen: ATP (CellTiter-Glo 3D, CTG) cell number/viability, 2.5-D 384-well ENR+CD organoids; conditions: primary screen; for Z.CTG: standard z score;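 on all read-outs here: compounds given at plating and again on day 3 over a 6-day differentiation from ENR+CV stem-cell-enriched precursors, ATP measured on day 6, plate median as control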
[3] = dose 0.08 uM, FC vs plate median
[4] = dose 0.40 uM, FC vs plate median
[5] = dose 2.00 uM, FC vs plate median
[6] = dose 10.00 uM, FC vs plate median

| Structure (SMILES) | Z.LYZ.NS ([1]; dose 0.08 uM) | Z.LYZ.NS ([1]; dose 0.40 uM) | Z.LYZ.NS ([1]; dose 2.00 uM) | Z.LYZ.NS ([1]; dose 10.00 uM) | Dose.FC.LYZ.NS [1, 3] | Dose.FC.LYZ.NS [1, 4] | Dose.FC.LYZ.NS [1, 5] | Dose.FC.LYZ.NS [1, 6] | Dose.FC.LYZ.S [2, 3] | Dose.FC.LYZ.S [2, 4] | Dose.FC.LYZ.S [2, 5] | Dose.FC.LYZ.S [2, 6] | Dose.FC.CTG (ENR+CD organoids; [3]) | Dose.FC.CTG (ENR+CD organoids; [4]) | Dose.FC.CTG (ENR+CD organoids; [5]) | Dose.FC.CTG (ENR+CD organoids; [6]) | Z.LYZ.NS (standard z score) ([1]; dose 0.08 uM) | Z.LYZ.NS (standard z score) ([1]; dose 0.40 uM) | Z.LYZ.NS (standard z score) ([1]; dose 2.00 uM) | Z.LYZ.NS (standard z score) ([1]; dose 10.00 uM) | also measured |
| --- | --- | --- | --- | --- | --- | --- | --- | --- | --- | --- | --- | --- | --- | --- | --- | --- | --- | --- | --- | --- | --- |
| CC(=O)O[C@H]1C[C@@H]2CC[C@@H]3[C@H](CC[C@@]4(C)[C@H]3C[C@H]([N+]3(C)CCCCC3)[C@@H]4OC(C)=O)[C@@]2(C)C[C@@H]1[N+]1(C)CCCCC1.[Br-].[Br-] [Pancuronium dibromide] | 1.118 | 0.406 | 0.806 | 0.302 | 0.128 log2 fold change | 0.047 log2 fold change | 0.093 log2 fold change | 0.035 log2 fold change | 0.213 log2 fold change | 0.094 log2 fold change | 0.099 log2 fold change | 0.004 log2 fold change | 0.217 log2 fold change | 0.226 log2 fold change | −0.012 log2 fold change | 0.062 log2 fold change |  |  |  |  | Z.CTG (ENR+CD organoids; dose 0.08 uM): 0.519; Z.CTG (ENR+CD organoids; dose 0.40 uM): 0.541; Z.CTG (ENR+CD organoids; dose 2.00 uM): −0.029; Z.CTG (ENR+CD organoids; dose 10.00 uM): 0.148 |
| CC[C@@H]1C(=O)N(C)c2cnc(Nc3ccc(C(=O)NC4CCN(C)CC4)cc3OC)nc2N1C1CCCC1 [BI 2536] |  |  |  |  |  |  |  |  |  |  |  |  |  |  |  |  | −0.907 | −1.121 | −1.168 | −0.953 | Dose.FC.LYZ.NS ([1]; dose 0.08 uM): −0.104 log2 fold change; Dose.FC.LYZ.NS ([1]; dose 0.40 uM): −0.129 log2 fold change; Dose.FC.LYZ.NS ([1]; dose 2.00 uM): −0.134 log2 fold change; Dose.FC.LYZ.NS ([1]; dose 10.00 uM): −0.109 log2 fold change; Dose.FC.LYZ.S ([2]; dose 0.08 uM): −0.163 log2 fold change; Dose.FC.LYZ.S ([2]; dose 0.40 uM): −0.220 log2 fold change; Dose.FC.LYZ.S ([2]; dose 2.00 uM): −0.224 log2 fold change; Dose.FC.LYZ.S ([2]; dose 10.00 uM): −0.185 log2 fold change; Dose.FC.CTG (ENR+CD organoids; dose 0.08 uM): 0.029 log2 fold change; Dose.FC.CTG (ENR+CD organoids; dose 0.40 uM): −0.534 log2 fold change; Dose.FC.CTG (ENR+CD organoids; dose 2.00 uM): −0.511 log2 fold change; Dose.FC.CTG (ENR+CD organoids; dose 10.00 uM): −1.028 log2 fold change |
| COc1ccc2cc([C@H](C)C(=O)O)ccc2c1 [Naproxen] | 1.226 | 0.930 | −0.698 | −1.064 | 0.141 log2 fold change | 0.107 log2 fold change | −0.080 log2 fold change | −0.122 log2 fold change | 0.067 log2 fold change | 0.057 log2 fold change | −0.215 log2 fold change | −0.215 log2 fold change | −0.098 log2 fold change | −0.068 log2 fold change | −0.588 log2 fold change | −1.282 log2 fold change |  |  |  |  |  |
| NC(=O)N1c2ccccc2CC(=O)c2ccccc21 [Oxcarbazepine] | 0.035 | −0.001 | 0.349 | −0.527 | 0.004 log2 fold change | 0.000 log2 fold change | 0.040 log2 fold change | −0.061 log2 fold change | 0.043 log2 fold change | 0.154 log2 fold change | 0.042 log2 fold change | −0.057 log2 fold change | −0.021 log2 fold change | −0.103 log2 fold change | −0.082 log2 fold change | −0.150 log2 fold change |  |  |  |  |  |
| O=C(Nc1cc(C(F)(F)F)cc(C(F)(F)F)c1)c1cc(Cl)ccc1O [IMD 0354] |  |  |  |  |  |  |  |  |  |  |  |  |  |  |  |  | 0.035 | 0.880 | 0.847 | −0.777 | Dose.FC.LYZ.NS (log2 fold change) ([1]; dose 0.08 uM): 0.004; Dose.FC.LYZ.NS (log2 fold change) ([1]; dose 0.40 uM): 0.101; Dose.FC.LYZ.NS (log2 fold change) ([1]; dose 2.00 uM): 0.097; Dose.FC.LYZ.NS (log2 fold change) ([1]; dose 10.00 uM): −0.089; Dose.FC.LYZ.S (log2 fold change) ([2]; dose 0.08 uM): −0.047; Dose.FC.LYZ.S (log2 fold change) ([2]; dose 0.40 uM): 0.043; Dose.FC.LYZ.S (log2 fold change) ([2]; dose 2.00 uM): 0.083; Dose.FC.LYZ.S (log2 fold change) ([2]; dose 10.00 uM): −0.128; Dose.FC.CTG (log2 fold change) (ENR+CD organoids; dose 0.08 uM): −0.007; Dose.FC.CTG (log2 fold change) (ENR+CD organoids; dose 0.40 uM): 0.117; Dose.FC.CTG (log2 fold change) (ENR+CD organoids; dose 2.00 uM): 0.076; Dose.FC.CTG (log2 fold change) (ENR+CD organoids; dose 10.00 uM): −0.480 |
| Cc1ccc(NCCCc2ccccc2)c(N)c1 [JSH-23] |  |  |  |  |  |  |  |  |  |  |  |  |  |  |  |  | 0.474 | 0.688 | −0.017 | −0.399 | Dose.FC.LYZ.NS (log2 fold change) ([1]; dose 0.08 uM): 0.054; Dose.FC.LYZ.NS (log2 fold change) ([1]; dose 0.40 uM): 0.079; Dose.FC.LYZ.NS (log2 fold change) ([1]; dose 2.00 uM): −0.002; Dose.FC.LYZ.NS (log2 fold change) ([1]; dose 10.00 uM): −0.046; Dose.FC.LYZ.S (log2 fold change) ([2]; dose 0.08 uM): 0.164; Dose.FC.LYZ.S (log2 fold change) ([2]; dose 0.40 uM): 0.106; Dose.FC.LYZ.S (log2 fold change) ([2]; dose 2.00 uM): 0.005; Dose.FC.LYZ.S (log2 fold change) ([2]; dose 10.00 uM): −0.026; Dose.FC.CTG (log2 fold change) (ENR+CD organoids; dose 0.08 uM): 0.193; Z.CTG (standard z score) (ENR+CD organoids; dose 0.08 uM): 0.462; Dose.FC.CTG (log2 fold change) (ENR+CD organoids; dose 0.40 uM): 0.230; Z.CTG (standard z score) (ENR+CD organoids; dose 0.40 uM): 0.548; Dose.FC.CTG (log2 fold change) (ENR+CD organoids; dose 2.00 uM): 0.074; Z.CTG (standard z score) (ENR+CD organoids; dose 2.00 uM): 0.176; Dose.FC.CTG (log2 fold change) (ENR+CD organoids; dose 10.00 uM): 0.046; Z.CTG (standard z score) (ENR+CD organoids; dose 10.00 uM): 0.110 |
